Experiments:
[1] = tested on: NOX-1 gene expression in beta cells; experiment: Inflammatory cytokine-induced gene expression in beta cells; format: cell-based
From the text: Inflammatory cytokines (PIC; IFNγ, TNFα, IL-1β)) induce expression of NOX-1 and MCP-1 in beta cells. Elevated NOX-1 is associated with beta cell dysfunction and NOX-1 expression is associated with feed-forward generation of reactive oxygen species. […] Shown are fold increase, *p<0.05.
Feed-forward activation of NOX-1 can also be reduced with siRNA. Inflammatory cytokines (PIC; IFNγ, TNFα, IL-1β) induce the gene expression of NOX-1 that is further regulated in a feed-forward manner involving reactive oxygen species generated by NOX-1.
Compounds that inhibit interleukin-12, interleukin-23 and/or STAT4 signaling disrupt NOX-1 upregulation by inflammatory cytokines.

beta cells [2] = experiment: Static glucose-stimulated-insulin-secretion after PIC; format: cell-based; details: 100 nM, 3 mM vs 16 mM glucose
Protocol: Pyrazolopyridine dione compound class of dual selective NOX1/4 inhibitors were also evaluated on preservation of beta cell function and survival with concomitant exposure to inflammatory cytokines. Two NOX1/4 pyrazolopyridine dione compounds C1 and C2 (Methyl-2-phenyl-5-(2-pyridinylmethyl)-1H-pyrazolo[4,3-c]pyridine-3,6(2H,5H)-dione and 5-Benzyl-4-methyl-2-phenyl-1H-pyrazolo[4,3-c]pyridine-3,6(2H,5H)-dione, respectively) were assessed at 100 nM. […] Inflammatory cytokines (PIC; IFNγ, TNFα, IL-1β)) abolished this response. The glucose-stimulated-insulin-secretion response was preserved in the presence of inflammatory cytokines by pyrazolopyridine dione compounds C1 and C2. *p<0.05, **p<0.01.

[3] = mice, dosing 1000 mg/Kg per os; cited from earlier work
[4] = tested on: NOX-1 gene expression in primary mouse islets; experiment: PIC-induced NOX-1 gene expression (RT-PCR); format: cell-based; details: NCTT-1 100 nM, ML171 1 μM
From the text: Human donor islets were obtained from integrated islet distribution project (http://iidp.coh.org) and cultured in CMRL media (Mediatech, Manassas, Va.). Mouse islets were freshly isolated from 8-week old male C57BL/6J mice (Jackson Laboratory, Bar Harbor, Me.) by common bile duct cannulation and collagenase digestion. Islets were hand picked prior to use. […] Total RNA was isolated using the RNeasy Mini Kit (Qiagen, Valencia, Calif.) and cDNA prepared using MMLV reverse transcriptase (Life Technologies) and random hexamers (Life Technologies). Jump Start Taq polymerase (Life Technologies) was used in PCR reactions. Primers used with SYBR Green 1 (Molecular Probes, Carlsbad, Calif.) probes: […] GAPDH forward [NT] ID NO: 3); GAPDH reverse [NT] NO: 4). RT-PCR reactions were performed in triplicate (CFX96 Bio-Rad, Hercules, Calif.). Taqman primers (Life Technologies) were also used.

[5] = tested on: MCP-1, IL-12p40, IL-12 p35, IFNγ gene expression in primary mouse islets; experiment: Cytokine-induced target gene expression (real time PCR); format: cell-based; details: NCTT-1 100 nM, ML171 1 μM
Protocol: (§1) Total RNA was isolated using the RNeasy Mini Kit (Qiagen, Valencia, Calif.) and cDNA prepared using MMLV reverse transcriptase (Life Technologies) and random hexamers (Life Technologies). Jump Start Taq polymerase (Life Technologies) was used in PCR reactions. […] RT-PCR reactions were performed in triplicate (CFX96 Bio-Rad, Hercules, Calif.). Taqman primers (Life Technologies) were also used. Data was normalized to the housekeeping gene GAPDH and analyzed using the 2-ΔΔCT method.
Data is quantitative real time PCR gene expression analysis from triplicate experiments performed in replicate. Fold induction in gene expression over control (non cytokine-treated) islets is graphed.

[6] = tested on: MCP-1 expression in INS-1; experiment: Cytokine-induced MCP-1 gene expression (real time PCR); format: cell-based, rat; details: INS-1, 10 nM
Protocol: as §1
Data is quantitative real time PCR gene expression analysis from triplicate experiments performed in replicate.

[7] = tested on: interleukin-12 and interleukin-23 production; details: cited from earlier work
NOX-1 = target: T1, NOX-1 (Homo sapiens, UniProt Q9Y5S8); details: cited from earlier work
T1 sequence (Q9Y5S8 1-564): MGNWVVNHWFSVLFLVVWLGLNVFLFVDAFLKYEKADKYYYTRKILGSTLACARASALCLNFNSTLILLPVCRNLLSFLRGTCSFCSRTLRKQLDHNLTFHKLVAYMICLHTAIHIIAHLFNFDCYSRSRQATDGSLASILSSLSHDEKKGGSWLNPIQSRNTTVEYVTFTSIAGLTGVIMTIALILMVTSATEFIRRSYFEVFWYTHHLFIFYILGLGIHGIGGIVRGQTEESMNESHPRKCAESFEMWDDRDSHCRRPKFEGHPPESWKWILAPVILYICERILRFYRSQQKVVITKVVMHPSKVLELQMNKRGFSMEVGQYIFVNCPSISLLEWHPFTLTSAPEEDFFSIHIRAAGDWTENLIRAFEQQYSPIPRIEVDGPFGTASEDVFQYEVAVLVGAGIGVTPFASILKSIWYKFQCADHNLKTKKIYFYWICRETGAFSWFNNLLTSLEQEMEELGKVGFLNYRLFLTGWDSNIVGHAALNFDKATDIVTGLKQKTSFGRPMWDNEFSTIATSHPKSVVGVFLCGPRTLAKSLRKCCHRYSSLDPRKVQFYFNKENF
T1 sequence (P13498 1-195 partner): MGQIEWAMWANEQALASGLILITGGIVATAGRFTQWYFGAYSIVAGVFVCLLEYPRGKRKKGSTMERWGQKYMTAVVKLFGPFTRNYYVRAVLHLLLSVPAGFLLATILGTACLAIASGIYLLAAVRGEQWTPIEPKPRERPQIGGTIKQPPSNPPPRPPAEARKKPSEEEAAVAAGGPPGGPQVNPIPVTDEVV

beta cells [8] = experiment: Pro-caspase 3 cleavage after PIC, beta cell survival; format: cell-based; details: C1 100 nM, ML171 10 μM
Protocol: (§2) Loss of beta cell viability in response to inflammatory cytokines was assessed by measurement of caspase 3 activation and quantified microscopy. […] Measured by pro-caspase 3 cleavage (A) or quantified microscopy of YO-PRO-1 stained cells (B). […] Shown are RFU from fluorescent capase3 substrate, ##p<0.01 relative to control; *p<0.05; **p<0.01 relative to PIC (A) and Microscopic apoptotic index ###p<0.001 relative to control; ***p<0.001; **p<0.01 relative to PIC (B).

beta cells [9] = experiment: Quantified microscopy of YO-PRO-1 stained cells after PIC; format: cell-based; details: C1 100 nM, ML171 10 μM
Protocol: as §2

Q: Which “inflammatory cytokine-induced gene expression (NOX-1 and MCP-1)” value [1] does the source give for `Cc1c2c(=O)n(-c3ccccc3)[nH]c2cc(=O)n1Cc1ccccc1` [C2, 5-Benzyl-4-methyl-2-phenyl-1H-pyrazolo[4,3-c]pyridine-3,6(2H,5H)-dione] here?
A: dose-related inhibition

Q: What about the “glucose-stimulated-insulin-secretion response with PIC” value (beta cells [2]) of the same compound?
A: preserved

Q: For `Cc1c2c(=O)n(-c3ccccc3Cl)[nH]c2cc(=O)n1Cc1ccccn1` [GKT-136901], which tolerability [3] is on record?
A: well tolerated

Q: Which results are given for `Cc1c2c(=O)n(-c3ccccc3)[nH]c2cc(=O)n1Cc1ccccn1` [NCTT-1]?
A: induction of gene NOX-1 by PIC [4]: attenuated; induction of gene IFNγ by PIC [5]: attenuated; induction of gene IL-12 p35 by PIC [5]: attenuated; induction of gene IL-12p40 by PIC [5]: attenuated; induction of gene MCP-1 by PIC [5]: attenuated; cytokine-induced MCP-1 expression [6]: attenuated cytokine-induced MCP-1 expression

Q: For `Cc1cccc(/C=N/Nc2cc(N3CCOCC3)nc(OCCc3ccccn3)n2)c1` [STA 5326, 6-morpholino-N-((E)-m-tolylmethyleneamino)-2-(2-(2-pyridyl)ethoxy)pyrimidin-4-amine], which “induction of NOX-1 gene expression by inflammatory cytokines” value ([1]; 1 μM) is on record?
A: inhibited

Q: What about the “interleukin-12 and interleukin-23 production” value [7] of the same compound?
A: inhibits interleukin-12 and interleukin-23 production

Q: For `COc1cc(C(C)=O)ccc1O` [apocynin], which “selectivity among NOX isotypes (in words)” value (NOX-1) is on record?
A: non-selective

Q: Which “selectivity among NOX isotypes (in words)” value (NOX-1) does the source give for `c1ccc2c(c1)[I+]c1ccccc1-2` [diphenylene iodonium] here?
A: non-selective

Q: Which “inflammatory cytokine-induced cell death, pro-caspase 3 cleavage” value (beta cells [8]) does the source give for “Methyl-2-phenyl-5-(2-pyridinylmethyl)-1H-pyrazolo[4,3-c]pyridine-3,6(2H,5H)-dione [C1]” here?
A: significantly protected

Q: And the “inflammatory cytokine-induced cell death, YO-PRO-1 microscopic apoptotic index” value (beta cells [9])?
A: significantly protected

Q: What about the “inflammatory cytokine-induced gene expression (NOX-1 and MCP-1)” value [1] of the same compound?
A: dose-related inhibition

Q: And the “glucose-stimulated-insulin-secretion response with PIC” value (beta cells [2])?
A: preserved

— patent US9914910B2, “Methods of preserving and protecting pancreatic beta cells and treating or preventing diabetes by inhibiting NOX-1” (Eastern Virginia Medical School, priority 2013, dated 2018)
